Laboratory results reported in US20140242093A1, “METHODS AND COMPOSITIONS FOR MODULATING THE INNATE IMMUNE RESPONSE AND/OR MYOGENESIS IN A MAMMALIAN SUBJECT” (FRED HUTCHINSON CANCER RESEARCH CENTER, priority 2011, published 2014).

Tested on: control human primary myoblasts
Assay: Expression microarray of primary myoblasts transduced with lentivirus carrying DUX4-fl, DUX4-s or GFP
Description: Primary human myoblasts were collected and cultured as previously described (Snider et al., 2010). Primary myoblasts were maintained at or below 70% confluency for proliferation. For differentiation, cells were allowed to reach 95-100% confluency in growth medium. Once confluency was reached, the cells were changed to differentiation medium (F10 media supplemented with 1% horse serum, 10 μg/mL insulin, and 10 μg/mL transferrin, penicillin/streptomycin) and maintained for 4 days. Human RD cells were grown in DMEM in 10% bovine calf serum (Hyclone) and penicillin/streptomycin. The primary myoblasts were transduced with lentivirus carrying DUX-fl, DUX4- or GFP (MOI=15).
Expression microarrays were performed on the transduced cells at 24 hours after transduction as follows. […] Samples were analyzed by Illumina Human Whole Genome microarrays. Probe intensities were corrected, normalized, and summarized by the Lumi package of Bioconductor (Du et al., 2008). Differentially expressed genes were identified by the LIMMA package of Bioconductor (Wettenhall and Smyth, 2004). Gene set enrichment analysis (GSEA) was performed using the Bioconductor GOstats package (Falcon and Gentleman, 2007).

DUX4-fl: full-length DUX4 protein (SEQ ID NO:110), expressed from lentiviral or pCS2 vectors or in vitro translated
LOC728450 expression fc (Refseq XM_001131473.2): 2.474 | RFNG fc (Refseq XM_001132711.1): −1.116 | LOC732416 expression fc (Refseq XM_001133386.1): 2.329 | THOC4 expression fc (Refseq XM_001134346.1): 4.035 | PRAMEF15 expression fc (Refseq XM_001713659.1): 7 | LOC100131392 expression fc (Refseq XM_001713681.1): 6.976 | LOC100132564 expression fc (Refseq XM_001713808.1): 3.588 | LOC391769 expression fc (Refseq XM_001713901.1): 8.19 | PRAMEF13 expression fc (Refseq XM_001713933.1): 7.422 | PRAMEF11 expression fc (Refseq XM_001714028.1): 5.94 | fc of LOC285296 (expression array) (Refseq XM_001714301.1): −1.042 | LOC100133588 expression fc (Refseq XM_001714755.1): 2.2 | CTGLF7 expression fc (Refseq XM_001714786.1): 3.437 | LOC100129630 expression fc (Refseq XM_001714940.1): 1.871 | LOC391763 expression fc (Refseq XM_001715080.1): 1.963 | LOC642446 expression fc (Refseq XM_001717781.1): 3.101 | LOC100133446 expression fc (Refseq XM_001717965.1): 4.635 | LOC100129165 fc (Refseq XM_001718314.1): −1.161 | LOC643336 expression fc (Refseq XM_001718563.1): 1.934 | LOC100129053 expression fc (Refseq XM_001718702.1): 2.724 | LOC100130652 expression fc (Refseq XM_001719052.1): 3.33 | RFPL4A expression fc (Refseq XM_001719234.1): 4.348 | LOC728809 fc (Refseq XM_001719546.1): −1.14 | LOC100134199 expression fc (Refseq XM_001719549.1): 8.048 | PNMA6B expression fc (Refseq XM_001721351.1): 3.603 | LOC100133984 expression fc (Refseq XM_001723079.1): 6.204 | LOC649330 expression fc (Refseq XM_001723218.1): 3.101 | LOC100128202 expression fc (Refseq XM_001723719.1): 3.711 | LOC100130311 expression fc (Refseq XM_001724111.1): 2.912 | LOC100131539 expression fc (Refseq XM_001724873.1): 4.629 | LOC100134006 expression fc (Refseq XM_001725030.1): 7.087 | LOC730167 expression fc (Refseq XM_001726158.1): 3.656 | LOC100129681 expression fc (Refseq XM_001726834.1, cultured human skeletal muscle): −4.075 | LOC651709 expression fc (Refseq XM_001732813.1): 2.304 | LOC727828 expression fc (Refseq XR_015137.1): 3.054 | LOC728060 fc (Refseq XR_015272.2): −1.095 | LOC732393 expression fc (Refseq XR_015873.1): 4.637 | MGC40489 expression fc (Refseq XR_016048.1): 2.542 | LOC643263 expression fc (Refseq XR_016355.1): 8.345 | LOC441081 expression fc (Refseq XR_017029.1): 3.764 | LOC647366 expression fc (Refseq XR_018122.1): 3.783 | LOC440041 expression fc (Refseq XR_018122.2): 3.895 | LOC647827 expression fc (Refseq XR_018213.1): 4.053 | LOC399988 expression fc (Refseq XR_018287.2): 1.966 | LOC650215 fc (Refseq XR_018889.1): −1.139 | fc of RBMS2P (expression array) (Refseq XR_019556.2): −0.4507 | LOC642148 expression fc (Refseq XR_019607.1): 6.851 | LOC650236 expression fc (Refseq XR_036872.1): 2.915 | LOC100134322 expression fc (Refseq XR_037416.1): 2.488 | LOC730974 expression fc (Refseq XR_037751.1): 7.715 | LOC643445 expression fc (Refseq XR_038080.1): 8.25 | LOC729516 expression fc (Refseq XR_038445.1): 5.955 | LOC340970 expression fc (Refseq XR_038494.1): 8.316 | LOC645381 expression fc (Refseq XR_038557.1): 2.089 | LOC728429 expression fc (Refseq XR_038921.1): 2.178 | LOC645638 fc (Refseq XR_040455.1): −1.128 | LOC400464 expression fc (Refseq XR_041115.1): 2.831 | TRIM53 expression fc (Refseq XR_041244.1): 4.778 | LOC729009 expression fc (Refseq XR_042330.1, cultured human skeletal muscle): −2.654 | number of genes increased 8-fold or more (Table 1): 164 genes | number of genes increased 16-fold or more (Table 1): 107 genes | ABCC3 expression fc (cultured human skeletal muscle): −1.491 | ADM expression fc (cultured human skeletal muscle): −1.619 | AGTRAP expression fc (cultured human skeletal muscle): −1.467 | AHNAK expression fc (cultured human skeletal muscle): −1.441 | ANGPTL2 expression fc (cultured human skeletal muscle): −1.893 | ANKFY1 expression fc (cultured human skeletal muscle): −1.396 | APOL3 expression fc (cultured human skeletal muscle): −1.548 | ARHGEF19 expression fc (cultured human skeletal muscle): −1.4 | ARID3A expression fc (cultured human skeletal muscle): −1.573 | ASNS expression fc (cultured human skeletal muscle): −1.454 | ATF5 expression fc (cultured human skeletal muscle): −1.826 | ATL3 expression fc (cultured human skeletal muscle): −1.455 | BHLHB2 expression fc (cultured human skeletal muscle): −1.43 | BTG2 expression fc (cultured human skeletal muscle): −1.573 | BTN3A2 expression fc (cultured human skeletal muscle): −1.759 | BTN3A3 expression fc (cultured human skeletal muscle): −1.62 | C1RL expression fc (cultured human skeletal muscle): −1.627 | C4orf18 expression fc (cultured human skeletal muscle): −1.781 | C8orf13 expression fc (cultured human skeletal muscle): −1.412 | C14orf4 expression fc (cultured human skeletal muscle): −1.476 | C18orf56 expression fc (cultured human skeletal muscle): −1.619 | CA9 expression fc (cultured human skeletal muscle): −1.526 | CABC1 expression fc (cultured human skeletal muscle): −1.494 | CABYR expression fc (cultured human skeletal muscle): −1.758 | CCDC8 expression fc (cultured human skeletal muscle): −1.453 | CEBPD expression fc (cultured human skeletal muscle): −1.521 | CLDN15 expression fc (cultured human skeletal muscle): −1.554 | CNTNAP1 expression fc (cultured human skeletal muscle): −1.744 | COL8A1 expression fc (cultured human skeletal muscle): −1.527 | CRISPLD2 expression fc (cultured human skeletal muscle): −1.752 | CSF3 expression fc (cultured human skeletal muscle): −1.626 | CYGB expression fc (cultured human skeletal muscle): −1.398 | CYP26B1 expression fc (cultured human skeletal muscle): −1.461 | CYP27A1 expression fc (cultured human skeletal muscle): −1.6 | DAB2 expression fc (cultured human skeletal muscle): −1.807 | DCN expression fc (cultured human skeletal muscle): −1.673 | DDB2 expression fc (cultured human skeletal muscle): −1.408 | DDIT4 expression fc (cultured human skeletal muscle): −1.522 | DDX60L expression fc (cultured human skeletal muscle): −1.638 | DKFZp451A211 expression fc (cultured human skeletal muscle): −1.833 | DNAJB2 expression fc (cultured human skeletal muscle): −1.488 | DUSP10 expression fc (cultured human skeletal muscle): −1.39 | ERAP2 expression fc (cultured human skeletal muscle): −1.605 | ESPNL expression fc (cultured human skeletal muscle): −1.567 | FADS1 expression fc (cultured human skeletal muscle): −1.845 | FAM110B expression fc (cultured human skeletal muscle): −1.675 | FAM175A expression fc (cultured human skeletal muscle): −1.54 | FHL2 expression fc (cultured human skeletal muscle): −1.58 | FILIP1L expression fc (cultured human skeletal muscle): −1.784 | FKBP5 expression fc (cultured human skeletal muscle): −1.758 | FOXQ1 expression fc (cultured human skeletal muscle): −1.432 | FPR1 expression fc (cultured human skeletal muscle): −1.603 | FST expression fc (cultured human skeletal muscle): −1.812 | FUCA1 expression fc (cultured human skeletal muscle): −1.615 | GALK1 expression fc (cultured human skeletal muscle): −1.411 | GALNTL2 expression fc (cultured human skeletal muscle): −1.834 | GAS1 expression fc (cultured human skeletal muscle): −1.732 | GBP4 expression fc (cultured human skeletal muscle): −1.478 | GFPT2 expression fc (cultured human skeletal muscle): −1.612 | GPX8 expression fc (cultured human skeletal muscle): −1.606 | GRINA expression fc (cultured human skeletal muscle): −1.427 | GSDMD expression fc (cultured human skeletal muscle): −1.763 | HAS2 expression fc (cultured human skeletal muscle): −1.679 | HCG4 expression fc (cultured human skeletal muscle): −1.651 | HES4 expression fc (cultured human skeletal muscle): −1.751 | HLA-C expression fc (cultured human skeletal muscle): −1.788 | HLA-H expression fc (cultured human skeletal muscle): −1.798 | HOXC6 expression fc (cultured human skeletal muscle): −1.539 | ID3 expression fc (cultured human skeletal muscle): −1.627 | IDH3B expression fc (cultured human skeletal muscle): −1.542 | IFIT5 expression fc (cultured human skeletal muscle): −1.645 | IFITM2 expression fc (cultured human skeletal muscle): −1.713 | IGFBP5 expression fc (cultured human skeletal muscle): −1.441 | IHPK3 expression fc (cultured human skeletal muscle): −1.859 | IL32 expression fc (cultured human skeletal muscle): −1.681 | IMPA2 expression fc (cultured human skeletal muscle): −1.437 | IRAK2 expression fc (cultured human skeletal muscle): −1.447 | IRAK3 expression fc (cultured human skeletal muscle): −1.5 | ISCU expression fc (cultured human skeletal muscle): −1.547 | ITPRIP expression fc (cultured human skeletal muscle): −1.763 | KIAA1618 expression fc (cultured human skeletal muscle): −1.843 | KLF6 expression fc (cultured human skeletal muscle): −1.659 | KRT17 expression fc (cultured human skeletal muscle): −1.626 | LAP3 expression fc (cultured human skeletal muscle): −1.552 | LIMA1 expression fc (cultured human skeletal muscle): −1.463 | LOC387763 expression fc (cultured human skeletal muscle): −1.46 | LOC389386 expression fc (cultured human skeletal muscle): −1.521 | LOC392437 expression fc (cultured human skeletal muscle): −1.674 | LOC653879 expression fc (cultured human skeletal muscle): −1.416 | LOC728431 expression fc (cultured human skeletal muscle): −1.44 | MAMDC2 expression fc (cultured human skeletal muscle): −1.858 | MAOA expression fc (cultured human skeletal muscle): −1.71 | MCEE expression fc (cultured human skeletal muscle): −1.398 | MGC16121 expression fc (cultured human skeletal muscle): −1.828 | MIOS expression fc (cultured human skeletal muscle): −1.485 | MLPH expression fc (cultured human skeletal muscle): −1.788 | MMP3 expression fc (cultured human skeletal muscle): −1.509 | MOCOS expression fc (cultured human skeletal muscle): −1.716 | MOV10 expression fc (cultured human skeletal muscle): −1.658 | MSC expression fc (cultured human skeletal muscle): −1.605 | MSI2 expression fc (cultured human skeletal muscle): −1.763
